What follows are compounds tested against Human Factor D (Homo sapiens (Human), UniProt P00746) (assay: Human Factor D Assay). Details: Table 1; Factor D purified from human serum, 80 nM, substrate Z-L-Lys-SBzl; read-out: IC50.
Format: biochemical
Protocol: Example 12. Human Factor D Assay
Human Factor D (purified from human serum, Complement Technology, Inc.) at 80 nM final concentration is incubated with test compound at various concentrations for 5 minutes at room temperature in 50 mM Tris, 1M NaCl, pH 7.5. A synthetic substrate Z-L-Lys-SBzl and DTNB (Ellman's reagent) are added to final concentrations of 100 μM each. Absorbance at 405 nm (A405) is recorded at 30 second intervals for 30 minutes using a microplate spectrophotometer. IC50 values are calculated by nonlinear regression of complement Factor D reaction rates as a function of test compound concentration.

Human Factor D, sequence (P00746 26-253): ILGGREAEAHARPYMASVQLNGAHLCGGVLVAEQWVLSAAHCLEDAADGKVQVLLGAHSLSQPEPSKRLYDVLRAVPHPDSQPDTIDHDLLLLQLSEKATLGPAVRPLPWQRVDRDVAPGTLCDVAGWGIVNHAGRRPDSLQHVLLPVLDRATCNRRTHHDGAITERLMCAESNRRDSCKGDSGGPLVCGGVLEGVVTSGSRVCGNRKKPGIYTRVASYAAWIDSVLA

`CC(=O)c1cn(CC(=O)N2C[C@H](F)C[C@H]2C(=O)Nc2cccc(Br)n2)c2ccc(Nc3cncnc3)cc12` [Compound 4, (2S,4R)-1-(2-(3-acetyl-5-(pyrimidin-5-ylamino)-1H-indol-1-yl)acetyl)-N-(6-bromopyridin-2-yl)-4-fluoropyrrolidine-2-carboxamide] and `CC(=O)c1cn(CC(=O)N2C[C@H](F)C[C@H]2C(=O)Nc2cccc(O)n2)c2ccc(Nc3cncnc3)cc12` [Compound 68, (2S,4R)-1-(2-(3-acetyl-5-(pyrimidin-5-ylamino)-1H-indol-1-yl)acetyl)-4-fluoro-N-(6-hydroxypyridin-2-yl)pyrrolidine-2-carboxamide] cannot be ordered by IC50: under 1000 nM for the first, under 1000 nM for the second.

First: CC(=O)c1cn(CC(=O)N2C[C@H](F)C[C@H]2C(=O)Nc2cccc(-c3ccccc3Cl)c2F)c2ccc(N(COC(=O)C(C)(C)C)c3cncnc3)cc12 [Compound 15, ((3-acetyl-1-(2-((2S,4R)-2-(2′-chloro-2-fluorobiphenyl-3-ylcarbamoyl)-4-fluoropyrrolidin-1-yl)-2-oxoethyl)-1H-indol-5-yl)(pyrimidin-5-yl)amino)methyl pivalate]
Second: NC(=O)c1nn(CC(=O)N2C[C@H](F)C[C@H]2C(=O)Nc2cccc(-c3ccccc3Cl)c2F)c2ccc(Nc3cncnc3)cc12 [Compound 10, 1-(2-((2S,4R)-2-(2′-chloro-2-fluorobiphenyl-3-ylcarbamoyl)-4-fluoropyrrolidin-1-yl)-2-oxoethyl)-5-(pyrimidin-5-ylamino)-1H-indazole-3-carboxamide]
The IC50 of the first is higher: 1000 to 10000 nM for the first, under 1000 nM for the second.

`CC(=O)c1cn(CC(=O)N2C[C@H](F)C[C@H]2C(=O)NCc2cc(F)cc(Cl)c2)c2ccc(Nc3cncnc3)cc12` [Compound 18, (2S,4R)-1-(2-(3-acetyl-5-(pyrimidin-5-ylamino)-1H-indol-1-yl)acetyl)-N-(3-chloro-5-fluorobenzyl)-4-fluoropyrrolidine-2-carboxamide] and `CC(=O)c1cn(CC(=O)N2C[C@H](F)C[C@H]2C(=O)NCc2ccccn2)c2ccc(Nc3cncnc3)cc12` [Compound 17, (2S,4R)-1-(2-(3-acetyl-5-(pyrimidin-5-ylamino)-1H-indol-1-yl)acetyl)-4-fluoro-N-(pyridin-2-ylmethyl) pyrrolidine-2-carboxamide] cannot be ordered by IC50: under 1000 nM for the first, under 1000 nM for the second.

Going from `CC(=O)c1cn(CC(=O)N2C[C@H](F)C[C@H]2C(=O)Nc2nc(-c3cccc(Cl)c3)ns2)c2ccc(Nc3cncnc3)cc12` [Compound 60, (2S,4R)-1-(2-(3-acetyl-5-(pyrimidin-5-ylamino)-1H-indol-1-yl)acetyl)-N-(3-(3-chlorophenyl)-1,2,4-thiadiazol-5-yl)-4-fluoropyrrolidine-2-carboxamide] to `CC(=O)c1cn(CC(=O)N2C[C@H](F)C[C@H]2C(=O)Nc2nccc(Cl)n2)c2ccc(Nc3cncnc3)cc12` [Compound 73, (2S,4R)-1-(2-(3-acetyl-5-(pyrimidin-5-ylamino)-1H-indol-1-yl)acetyl)-N-(4-chloropyrimidin-2-yl)-4-fluoropyrrolidine-2-carboxamide], the IC50 falls from over 10000 nM to under 1000 nM.

Compared with `CC(=O)c1cn(CC(=O)N2C[C@H](F)C[C@H]2C(=O)Nc2nn(C)c3c2CC(C)C(=O)N3)c2ccc(Nc3cncnc3)cc12` (stereo partly drawn) [Compound 67, (2S 4R)-1-(2-(3-acetyl-5-(pyrimidin-5-ylamino)-1H-indol-1-yl)acetyl)-N-(1,5-dimethyl-6-oxo-4,5,6,7-tetrahydro-1H-pyrazolo[3,4-b]pyridin-3-yl)-4-fluoropyrrolidine-2-carboxamide], `CC(=O)c1cn(CC(=O)N2C[C@H](F)C[C@H]2C(=O)Nc2ncc(Br)cn2)c2ccc(Nc3cncnc3)cc12` [Compound 44, (2S,4R)-1-(2-(3-acetyl-5-(pyrimidin-5-ylamino)-1H-indol-1-yl)acetyl)-N-(5-bromopyrimidin-2-yl)-4-fluoropyrrolidine-2-carboxamide] is lower in IC50: 1000 to 10000 nM for the first, under 1000 nM for the second.

First: CC(=O)c1cn(CC(=O)N2C[C@H](F)C[C@H]2C(=O)NC2CCCN(c3ccccc3Cl)C2=O)c2ccc(Nc3cncnc3)cc12 (stereo partly drawn) [Compound 58, (2S,4R)-1-(2-(3-acetyl-5-(pyrimidin-5-ylamino)-1H-indol-1-yl)acetyl)-N-(1-(2-chlorophenyl)-2-oxopiperidin-3-yl)-4-fluoropyrrolidine-2-carboxamide]
Second: CC(=O)c1cn(CC(=O)N2C[C@H](F)C[C@H]2C(=O)N[C@@H]2CCC[C@H]2O)c2ccc(Nc3cncnc3)cc12 [Compound 69, (2S,4R)-1-(2-(3-acetyl-5-(pyrimidin-5-ylamino)-1H-indol-1-yl)acetyl)-4-fluoro-N-((1R,2R)-2-hydroxy-cyclopentyl) pyrrolidine-2-carboxamide]
The IC50 of the first is lower: under 1000 nM for the first, 1000 to 10000 nM for the second. The first is the more potent here.

First: CC(=O)c1cn(CC(=O)N2C[C@H](F)C[C@H]2C(=O)Nc2cc(C)nc3nc(C(F)(F)F)nn23)c2ccc(Nc3cncnc3)cc12 [Compound 41, (2S,4R)-1-(2-(3-acetyl-5-(pyrimidin-5-ylamino)-1H-indol-1-yl)acetyl)-4-fluoro-N-(5-methyl-2-(trifluoromethyl)-[1,2,4]triazolo[1,5-a]pyrimidin-7-yl)pyrrolidine-2-carboxamide]
Second: CC(=O)c1cn(CC(=O)N2C[C@H](F)C[C@H]2C(=O)Nc2noc3cc(C(F)(F)F)ccc23)c2ccc(Nc3cncnc3)cc12 [Compound 52, (2S,4R)-1-(2-(3-acetyl-5-(pyrimidin-5-ylamino)-1H-indol-1-yl)acetyl)-4-fluoro-N-(6-(trifluoromethyl)benzo[d]isoxazol-3-yl)pyrrolidine-2-carboxamide]
The IC50 of the first is higher: over 10000 nM for the first, 1000 to 10000 nM for the second.

Going from `CC(=O)c1cn(CC(=O)N2C[C@H](F)C[C@H]2C(=O)Nc2ccc3ccccc3c2)c2ccc(Nc3cncnc3)cc12` [Compound 46, (2S,4R)-1-(2-(3-acetyl-5-(pyrimidin-5-ylamino)-1H-indol-1-yl)acetyl)-4-fluoro-N-(naphthalen-2-yl)pyrrolidine-2-carboxamide] to `CC(=O)c1cn(CC(=O)N2C[C@H](F)C[C@H]2C(=O)Nc2nc(-c3ccc4c(c3)CCCC4)cs2)c2ccc(Nc3cncnc3)cc12` [Compound 50, (2S,4R)-1-(2-(3-acetyl-5-(pyrimidin-5-ylamino)-1H-indol-1-yl)acetyl)-4-fluoro-N-(4-(5,6,7,8-tetrahy-dronaphthalen-2-yl)thiazol-2-yl)pyrrolidine-2-carboxamide], the IC50 rises from under 1000 nM to over 10000 nM. The first is the more potent here.

Same assay, conditions: Table 3; Factor D purified from human serum, 80 nM, substrate Z-L-Lys-SBzl; read-out: IC50 (Stars)

`CC(=O)c1cn(CC(=O)N2C[C@H](F)C[C@H]2C(=O)NCCc2ccccc2)c2ccc(Nc3cccnc3)cc12` [Compound 148, (2S,4R)-1-(2-(3-acetyl-5-(pyridin-3-ylamino)-1H-indol-1-yl)acetyl)-4-fluoro-N-phenethylpyrrolidin-2-carboxamide] and `CC(=O)c1cn(CC(=O)N2C[C@H](F)C[C@H]2C(=O)NCCCCc2ccccc2)c2ccc(Nc3cccnc3)cc12` [Compound 152, (2S,4R)-1-(2-(3-acetyl-5-(pyridin-3-ylamino)-1H-indol-1-yl)acetyl)-4-fluoro-N-(4-phenylbutyl) pyrrolidine-2-carboxamide] cannot be ordered by IC50: under 1000 nM for the first, under 1000 nM for the second.

`CC(=O)c1nn(CC(=O)N2[C@H](C(=O)Nc3nc(Br)ccc3C)C[C@@]3(C)C[C@@H]23)c2ccc(Nc3cncc(F)c3)cc12` [Compound 165, (1R,3S,5R)-2-(2-(3-acetyl-5-((5-fluoropyridin-3-yl)amino)-1H-indazol-1-yl)acetyl)-N-(6-bromo-3-methylpyridin-2-yl)-5-methyl-2-azabicyclo[3.1.0] hexane-3-carboxamide] and `CC(=O)c1cn(CC(=O)N2C[C@H](F)C[C@H]2C(=O)NCCCc2ccccc2)c2ccc(Nc3cncnc3)cc12` [Compound 155, (2S,4R)-1-(2-(3-acetyl-5-(pyrimidin-5-ylamino)-1H-indol-1-yl)acetyl)-4-fluoro-N-(3-phenylpropyl) pyrrolidine-2-carboxamide] cannot be ordered by IC50: under 1000 nM for the first, under 1000 nM for the second.

`CC(=O)c1cn(CC(=O)N2C[C@H](F)C[C@H]2C(=O)NCc2ccccc2)c2ccc(Nc3cncnc3)cc12` [Compound 153, (2S,4R)-1-(2-(3-acetyl-5-(pyrimidin-5-ylamino)-1H-indol-1-yl)acetyl)-N-benzyl-4-fluoropyrrolidine-2-carboxamide] was tested, and the IC50 was under 1000 nM.
